Results: patent publication US20240382629A1, “HETEROBIVALENT AND HOMOBIVALENT AGENTS TARGETING FIBROBLAST ACTIVATION PROTEIN ALPHA AND/OR PROSTATE-SPECIFIC MEMBRANE ANTIGEN” (The Johns Hopkins University, priority 2021, published 2024)
Values joined by “and” are separate entries in the source; they are usually repeats but may differ in a detail not shown here. Identical values can stand only once. Like-named read-outs stand apart in the source and are kept apart here.

Tests used:
[1] = Biodistribution of representative compounds (Example 13), % ID/g in tissues of tumor-bearing mice; format: in vivo, mouse
[2] = Biodistribution of representative compounds ([^18F]Sri-07-56, [^18F]Sri-07-52, [^18F]JHU1221823, [^18F]FAPI-74), tissue % ID/g with carrier or blocker; format: in vivo, mouse; conditions: for Bladder % ID/g / Blood % ID/g / Brain % ID/g / Fat % ID/g / Femur % ID/g / Heart % ID/g / Kidney % ID/g / Large intestine % ID/g / Liver % ID/g / Lung % ID/g / Muscle % ID/g / Pancreas % ID/g / Salivery gland % ID/g / Small intestine % ID/g / Spleen % ID/g / Stomach % ID/g / Tumor % ID/g: individual mice
Source text: Biodistribution of Representative Compounds

[3] = 60 min + Blocker cold FAPI-04 10 nmole, sub-heading prints [^18F]JHU1221785
[4] = 60 min, 20 μCi per mouse, sub-heading prints [^18F]JHU1221785

## N#CC1CCCN1C(=O)CNC(=O)c1ccnc2ccc(OCCCNCC([18F])C(O)C(O)C(O)CO)cc12 (centres unmarked) [[^18F]FAP-FDG]
[1]; [3]
  % ID/g Bladder (individual mouse): 1.45 % ID/g and 2.74 % ID/g
  % ID/g Blood (individual mouse): 0.20 % ID/g and 0.25 % ID/g
  % ID/g Brain (individual mouse): 4.18 % ID/g and 4.67 % ID/g
  % ID/g Fat (individual mouse): 0.63 % ID/g and 0.26 % ID/g
  % ID/g Femur (individual mouse): 1.33 % ID/g and 1.67 % ID/g
  % ID/g Heart (individual mouse): 11.97 % ID/g and 17.79 % ID/g
  % ID/g Kidney (individual mouse): 0.95 % ID/g and 0.87 % ID/g
  % ID/g Large intestine (individual mouse): 3.51 % ID/g and 3.22 % ID/g
  % ID/g Liver (individual mouse): 0.38 % ID/g and 0.55 % ID/g
  % ID/g Lung (individual mouse): 2.25 % ID/g and 2.08 % ID/g
  % ID/g Mean Bladder: 2.10 % ID/g
  % ID/g Mean Blood: 0.22 % ID/g
  % ID/g Mean Brain: 4.43 % ID/g
  % ID/g Mean Fat: 0.44 % ID/g
  % ID/g Mean Femur: 1.50 % ID/g
  % ID/g Mean Heart: 14.88 % ID/g
  % ID/g Mean Kidney: 0.91 % ID/g
  % ID/g Mean Large intestine: 3.37 % ID/g
  % ID/g Mean Liver: 0.47 % ID/g
  % ID/g Mean Lung: 2.17 % ID/g
  % ID/g Mean Muscle: 6.73 % ID/g
  % ID/g Mean Pancreas: 1.01 % ID/g
  % ID/g Mean Salivary gland: 3.76 % ID/g
  % ID/g Mean Small intestine: 0.77 % ID/g
  % ID/g Mean Spleen: 1.30 % ID/g
  % ID/g Mean Stomach: 2.76 % ID/g
  % ID/g Mean Tumor: 3.65 % ID/g
  % ID/g Muscle (individual mouse): 6.83 % ID/g and 6.64 % ID/g
  % ID/g Pancreas (individual mouse): 1.20 % ID/g and 0.82 % ID/g
  % ID/g Salivery gland (individual mouse): 5.34 % ID/g and 2.19 % ID/g
  % ID/g Small intestine (individual mouse): 0.61 % ID/g and 0.92 % ID/g
  % ID/g Spleen (individual mouse): 0.92 % ID/g and 1.68 % ID/g
  % ID/g Stomach (individual mouse): 3.50 % ID/g and 2.02 % ID/g
  % ID/g Tumor (individual mouse): 3.33 % ID/g and 3.97 % ID/g
[1]; [4]
  % ID/g Bladder (individual mouse): 2.55 % ID/g and 2.49 % ID/g
  % ID/g Blood (individual mouse): 0.21 % ID/g and 0.25 % ID/g
  % ID/g Brain (individual mouse): 5.31 % ID/g and 6.18 % ID/g
  % ID/g Fat (individual mouse): 3.29 % ID/g and 1.13 % ID/g
  % ID/g Femur (individual mouse): 2.28 % ID/g and 2.68 % ID/g
  % ID/g Heart (individual mouse): 23.96 % ID/g and 16.00 % ID/g
  % ID/g Kidney (individual mouse): 1.13 % ID/g and 2.01 % ID/g
  % ID/g Large intestine (individual mouse): 4.03 % ID/g and 4.32 % ID/g
  % ID/g Liver (individual mouse): 0.55 % ID/g and 0.70 % ID/g
  % ID/g Lung (individual mouse): 2.15 % ID/g and 2.85 % ID/g
  % ID/g Mean Bladder: 2.52 % ID/g
  % ID/g Mean Blood: 0.23 % ID/g
  % ID/g Mean Brain: 5.74 % ID/g
  % ID/g Mean Fat: 2.21 % ID/g
  % ID/g Mean Femur: 2.48 % ID/g
  % ID/g Mean Heart: 19.98 % ID/g
  % ID/g Mean Kidney: 1.57 % ID/g
  % ID/g Mean Large intestine: 4.17 % ID/g
  % ID/g Mean Liver: 0.63 % ID/g
  % ID/g Mean Lung: 2.50 % ID/g
  % ID/g Mean Muscle: 6.18 % ID/g
  % ID/g Mean Pancreas: 1.33 % ID/g
  % ID/g Mean Salivary gland: 5.31 % ID/g
  % ID/g Mean Small intestine: 1.06 % ID/g
  % ID/g Mean Spleen: 1.29 % ID/g
  % ID/g Mean Stomach: 2.72 % ID/g
  % ID/g Mean Tumor: 5.02 % ID/g
  % ID/g Muscle (individual mouse): 7.65 % ID/g and 4.71 % ID/g
  % ID/g Pancreas (individual mouse): 1.25 % ID/g and 1.42 % ID/g
  % ID/g Salivery gland (individual mouse): 6.70 % ID/g and 3.91 % ID/g
  % ID/g Small intestine (individual mouse): 1.21 % ID/g and 0.91 % ID/g
  % ID/g Spleen (individual mouse): 1.20 % ID/g and 1.38 % ID/g
  % ID/g Stomach (individual mouse): 2.04 % ID/g and 3.39 % ID/g
  % ID/g Tumor (individual mouse): 4.12 % ID/g and 5.91 % ID/g

## N#CC1CCCN1C(=O)CNC(=O)c1ccnc2ccc(OCCCNC(=O)CCc3cn(CCC(NC(=O)c4ccc([18F])nc4)C(=O)NCCCCC(NC(=O)NC(CC(=O)O)C(=O)O)C(=O)O)nn3)cc12 (centres unmarked) [[^18F]Sri-07-52]
[2]; 30 min, ~100 μCi per mouse
  Bladder % ID/g Mean: 1.98 % ID/g
  Blood % ID/g Mean: 10.03 % ID/g
  Brain % ID/g Mean: 0.21 % ID/g
  Fat % ID/g Mean: 0.50 % ID/g
  Femur % ID/g Mean: 2.53 % ID/g
  Heart % ID/g Mean: 4.58 % ID/g
  Kidney % ID/g Mean: 2.71 % ID/g
  Large intestine % ID/g Mean: 3.78 % ID/g
  Liver % ID/g Mean: 3.20 % ID/g
  Lung % ID/g Mean: 6.18 % ID/g
  Muscle % ID/g Mean: 2.09 % ID/g
  Pancreas % ID/g Mean: 5.86 % ID/g
  Salivary gland % ID/g Mean: 13.84 % ID/g
  Small intestine % ID/g Mean: 4.36 % ID/g
  Spleen % ID/g Mean: 2.03 % ID/g
  Stomach % ID/g Mean: 1.71 % ID/g
  Tumor % ID/g Mean: 4.99 % ID/g
  Bladder % ID/g: 1.47 % ID/g and 2.50 % ID/g
  Blood % ID/g: 9.03 % ID/g and 11.04 % ID/g
  Brain % ID/g: 0.24 % ID/g and 0.19 % ID/g
  Fat % ID/g: 0.36 % ID/g and 0.64 % ID/g
  Femur % ID/g: 2.15 % ID/g and 2.91 % ID/g
  Heart % ID/g: 4.65 % ID/g and 4.52 % ID/g
  Kidney % ID/g: 2.62 % ID/g and 2.80 % ID/g
  Large intestine % ID/g: 5.82 % ID/g and 1.74 % ID/g
  Liver % ID/g: 3.03 % ID/g and 3.36 % ID/g
  Lung % ID/g: 6.53 % ID/g and 5.82 % ID/g
  Muscle % ID/g: 2.07 % ID/g and 2.12 % ID/g
  Pancreas % ID/g: 6.54 % ID/g and 5.18 % ID/g
  Salivery gland % ID/g: 11.28 % ID/g and 16.41 % ID/g
  Small intestine % ID/g: 4.18 % ID/g and 4.54 % ID/g
  Spleen % ID/g: 2.06 % ID/g and 1.99 % ID/g
  Stomach % ID/g: 1.72 % ID/g and 1.71 % ID/g
  Tumor % ID/g: 5.57 % ID/g and 4.40 % ID/g
[2]; 120 min, 20 μCi per mouse
  Bladder % ID/g Mean: 1.66 % ID/g
  Blood % ID/g Mean: 5.44 % ID/g
  Brain % ID/g Mean: 0.22 % ID/g
  Fat % ID/g Mean: 0.56 % ID/g
  Femur % ID/g Mean: 2.17 % ID/g
  Heart % ID/g Mean: 3.20 % ID/g
  Kidney % ID/g Mean: 2.71 % ID/g
  Large intestine % ID/g Mean: 1.08 % ID/g
  Liver % ID/g Mean: 2.33 % ID/g
  Lung % ID/g Mean: 3.15 % ID/g
  Muscle % ID/g Mean: 1.53 % ID/g
  Pancreas % ID/g Mean: 3.98 % ID/g
  Salivary gland % ID/g Mean: 7.20 % ID/g
  Small intestine % ID/g Mean: 2.64 % ID/g
  Spleen % ID/g Mean: 1.51 % ID/g
  Stomach % ID/g Mean: 1.11 % ID/g
  Tumor % ID/g Mean: 1.96 % ID/g
  Bladder % ID/g: 0.97 % ID/g and 2.35 % ID/g
  Blood % ID/g: 4.70 % ID/g and 6.19 % ID/g
  Brain % ID/g: 0.32 % ID/g and 0.13 % ID/g
  Fat % ID/g: 0.74 % ID/g and 0.38 % ID/g
  Femur % ID/g: 1.99 % ID/g and 2.35 % ID/g
  Heart % ID/g: 3.20 % ID/g and 3.21 % ID/g
  Kidney % ID/g: 1.66 % ID/g and 3.77 % ID/g
  Large intestine % ID/g: 0.85 % ID/g and 1.30 % ID/g
  Liver % ID/g: 2.28 % ID/g and 2.43 % ID/g
  Lung % ID/g: 2.65 % ID/g and 3.65 % ID/g
  Muscle % ID/g: 1.58 % ID/g and 1.47 % ID/g
  Pancreas % ID/g: 3.00 % ID/g and 4.96 % ID/g
  Salivery gland % ID/g: 6.20 % ID/g and 8.21 % ID/g
  Small intestine % ID/g: 2.55 % ID/g and 2.72 % ID/g
  Spleen % ID/g: 1.54 % ID/g and 1.49 % ID/g
  Stomach % ID/g: 1.00 % ID/g and 1.23 % ID/g
  Tumor % ID/g: 1.67 % ID/g and 2.25 % ID/g

## N#CC1CCCN1C(=O)CNC(=O)c1ccnc2ccc(OCCCNC(=O)CCc3cn(CCC(NC(=O)c4ccc([18F])nc4)C(=O)NCCNC(=O)CN4CCN(CC(=O)O)CCN(CC(=O)O)CCN(CC(=O)O)CC4)nn3)cc12 (centres unmarked) [[^18F]Sri-07-56]
[1]; 60 min, 2 μCi per mouse
  % ID/g Blood (individual mouse): 10.48 % ID/g and 7.56 % ID/g
  % ID/g Heart (individual mouse): 4.72 % ID/g and 3.07 % ID/g
  % ID/g Liver (individual mouse): 2.82 % ID/g and 2.25 % ID/g
  % ID/g Lung (individual mouse): 5.06 % ID/g and 3.66 % ID/g
  % ID/g Mean Blood: 9.02 % ID/g
  % ID/g Mean Heart: 3.90 % ID/g
  % ID/g Mean Liver: 2.54 % ID/g
  % ID/g Mean Lung: 4.36 % ID/g
  % ID/g Mean Spleen: 1.91 % ID/g
  % ID/g Spleen (individual mouse): 2.19 % ID/g and 1.64 % ID/g
[2]
  Bladder % ID/g Mean: 0.99 % ID/g
  Brain % ID/g Mean: 0.22 % ID/g
  Fat % ID/g Mean: 0.89 % ID/g
  Femur % ID/g Mean: 1.32 % ID/g
  Kidney % ID/g Mean: 2.10 % ID/g
  Large intestine % ID/g Mean: 0.93 % ID/g
  Muscle % ID/g Mean: 0.90 % ID/g
  Pancreas % ID/g Mean: 2.18 % ID/g
  Salivary gland % ID/g Mean: 3.55 % ID/g
  Small intestine % ID/g Mean: 1.73 % ID/g
  Stomach % ID/g Mean: 0.86 % ID/g
  Tumor % ID/g Mean: 1.78 % ID/g
  Bladder % ID/g: 0.86 % ID/g and 1.12 % ID/g
  Brain % ID/g: 0.28 % ID/g and 0.16 % ID/g
  Fat % ID/g: 0.38 % ID/g and 1.40 % ID/g
  Femur % ID/g: 1.63 % ID/g and 1.01 % ID/g
  Kidney % ID/g: 2.24 % ID/g and 1.96 % ID/g
  Large intestine % ID/g: 0.90 % ID/g and 0.95 % ID/g
  Muscle % ID/g: 0.74 % ID/g and 1.06 % ID/g
  Pancreas % ID/g: 2.39 % ID/g and 1.96 % ID/g
  Salivery gland % ID/g: 4.40 % ID/g and 2.70 % ID/g
  Small intestine % ID/g: 2.06 % ID/g and 1.40 % ID/g
  Stomach % ID/g: 1.05 % ID/g and 0.67 % ID/g
  Tumor % ID/g: 1.86 % ID/g and 1.70 % ID/g
